How the values were obtained:
584.000060 = tested on: 584.000060
Text: (§1) Assessment of biological properties included measurement of antiviral activity against HIV-1 strains. […] These assays score for reduction of infectious virus titer employing the indicator cell lines MAGI or the CCR5 expressing derivative cMAGI. Both cell lines exploit the ability of HIV-1 tat to transactivate the expression of a β-galactosidase reporter gene driven by the HIV-LTR. The β-gal reporter has been modified to localize in the nucleus and can be detected with the X-gal substrate as intense nuclear staining within a few days of infection. The number of stained nuclei can thus be interpreted as equal to the number of infectious virions in the challenge inoculum if there is only one round of infection prior to staining. […] In the MAGI and cMAGI assays, a 50% reduction in infectious titer (Vn/Vo=0.5) is significant, and provides the primary cutoff value for assessing antiviral activity (“IC50” is defined as the concentration of active ingredient resulting in a 50% reduction in infectious virus titer). […] The peptide (in the respective dilution) was added to the cMAGI or MAGI cells, followed by the virus inocula; and 24 hours later, an inhibitor of infection and cell-cell fusion (e.g., SEQ ID NO:2 (enfuvirtide)) was added to prevent secondary rounds of HIV infection and cell-cell virus spread. The cells were cultured for 2 more days, and then fixed and stained with the X-gal substrate to detect HIV-infected cells. The number of infected cells for each control and peptide dilution was determined with the CCD-imager, and then the IC50 was calculated (expressed in μg/ml).
(§2) In particular, in vitro resistance comparison studies were performed between the novel SEQ ID NO:9 compound of interest and established antiviral agent SEQ ID NO:2, described in detail as follows: MT2 cells were infected with virus isolates (IIIB, 030, 060 and 098) and cultured in increasing concentrations of SEQ ID NO:2 (enfuvirtide) or SEQ ID NO:9 to select for resistance. The initial peptide concentration was approximately 2 times the IC50 of each peptide against the corresponding wild type isolate. Peptide concentrations were maintained by adding fresh peptide every 1-3 days. Cultures were monitored for cytopathic effect (CPE) using standard techniques and when maximal CPE was achieved, a small aliquot of virus was used for subsequent rounds of infection. Peptide concentrations were increased 2 to 4-fold depending on the length of time in culture when compared to the growth rate of wild type virus. During the course of selection, peptide-free virus stocks were also collected. Peptide-free virus stocks were characterized for gp41 genotypic changes by dideoxy sequencing chemistries and phenotypic susceptibility was determined using a cMAGI infectivity assay.

IIIB = conditions: starting virus isolate IIIB
Text: as §1, §2

[1] = tested on: virus isolates (IIIB, 030, 060 and 098)
Text: as §1, §2

584.000030 = tested on: 584.000030
Text: as §1, §2

584.000098 = tested on: 584.000098
Text: as §1, §2

HIV-Res = format: cell-based, HIV-1; conditions: resistant viral isolate "Res"
Text: Assessment of biological properties included measurement of antiviral activity against HIV-1 strains. In determining antiviral activity (e.g., one measure being the ability to inhibit transmission of HIV to a target cell) of the HIV fusion inhibitor peptides, an in vitro assay which has been shown, by data generated using peptides derived from the HR regions of HIV gp41, to be predictive of antiviral activity observed in vivo was used. […] These assays score for reduction of infectious virus titer employing the indicator cell lines MAGI or the CCR5 expressing derivative cMAGI. Both cell lines exploit the ability of HIV-1 tat to transactivate the expression of a β-galactosidase reporter gene driven by the HIV-LTR. The β-gal reporter has been modified to localize in the nucleus and can be detected with the X-gal substrate as intense nuclear staining within a few days of infection. […] The number of infected cells for each control and peptide dilution was determined with the CCD-imager, and then the IC50 was calculated (expressed in μg/ml).
Viruses resistant to the antiviral activity of a peptide consisting of a base sequence can be produced using standard laboratory methods. […] The cultures are maintained and monitored until syncytia are present. […] The second round of culture is maintained and monitored for presence of virus resistant to the antiviral activity of the peptide. […]

Q: “Ac-TTWEAWDRAIAEYAARIEALLRALQEQQEKNEAALREL-NH2 [SEQ ID NO:9, TTWEAWDRAIAEYAARIEALLRALQEQQEKNEAALREL]” was tested. Which “Fold Change in IC50” value (584.000060; starting virus isolate 584.000060) did it give?
A: The value was 26.

Q: What about the “Ending IC50” value (584.000060; starting virus isolate 584.000060, after selection) of the same substance?
A: Its value is 0.208 mg/L.

Q: What about the “Starting IC50” value (584.000060; starting virus isolate 584.000060, before selection) of the same substance?
A: The value was 0.008 mg/L.

Q: What about the “Fold Change in IC50” value (IIIB) of the same substance?
A: Its value is 231.

Q: What about the “Ending IC50” value (IIIB; after selection) of the same substance?
A: Its value is 2.768 mg/L.

Q: And the “Starting IC50” value (IIIB; before selection)?
A: The value was 0.012 mg/L.

Q: What about the “Fold Change in IC50” value ([1]; Geometric Mean of four isolates) of the same substance?
A: The value was 24.

Q: And the “Ending IC50” value ([1]; Geometric Mean of four isolates, after selection)?
A: The value was 0.429 mg/L.

Q: And the “Starting IC50” value ([1]; Geometric Mean of four isolates, before selection)?
A: Its value is 0.018 mg/L.

Q: What about the “barrier to development of resistance in vitro, in words” value ([1]; compared to SEQ ID NO:2) of the same substance?
A: Its value is “higher barrier to development of resistance in vitro”.

Q: What about the “Fold Change in IC50” value (584.000030; starting virus isolate 584.000030) of the same substance?
A: The value was 4.

Q: What about the “Ending IC50” value (584.000030; starting virus isolate 584.000030, after selection) of the same substance?
A: Its value is 0.113 mg/L.

Q: And the “Starting IC50” value (584.000030; starting virus isolate 584.000030, before selection)?
A: The value was 0.028 mg/L.

Q: And the “Fold Change in IC50” value (584.000098; starting virus isolate 584.000098)?
A: Its value is 14.

Q: And the “Ending IC50” value (584.000098; starting virus isolate 584.000098, after selection)?
A: The value was 0.521 mg/L.

Q: What about the “Starting IC50” value (584.000098; starting virus isolate 584.000098, before selection) of the same substance?
A: Its value is 0.037 mg/L.

Q: What about the “Antiviral Activity (μg/ml) HIV-Res IC50” value (HIV-Res) of the same substance?
A: The value was under 0.10 µg/mL.

Source: patent publication US20090068243A1, “Novel formulations for delivery of antiviral peptide therapeutics” (priority 2007, published 2009)
